Source: the supplement of paper PMC11061612

What was measured:
[1] = test system: SU-DHL-6 (B-Cell Non-Hodgkin's Lymphoma); experiment: Bliss excess, mean over the matrix (fraction); higher = more synergy
Summary of the method: (§1)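 Cell lines in DMEM/F12 or RPMI with 10% FBS were plated in 1536-well plates, held 24 hours at 37°C, 5% CO2, then given two-drug dose matrices for 72 hours (DMSO typically 0.2%). Viability was read by CellTiter-Glo 2.0 luminescence and scaled as inhibition from 0 (vehicle wells) to 1 (blank wells). Combination Emax is the second-highest inhibition in the matrix; Bliss excess is observed combination effect minus expected EA + EB − EA·EB, EA and EB being single-agent effects.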

[2] = test system: MHH-PREB-1 (B-Cell Non-Hodgkin's Lymphoma); experiment: as above
Summary of the method: as §1

[3] = test system: NCI-H747 (Colorectal Carcinoma); experiment: as above
Summary of the method: as §1

[4] = test system: TE-4 (Esophageal Squamous Cell Carcinoma); experiment: as above
Summary of the method: as §1

[5] = test system: OC-314 (Ovarian Carcinoma); experiment: as above
Summary of the method: as §1

[6] = test system: HCC-15 (Squamous Cell Lung Carcinoma); experiment: as above
Summary of the method: as §1

[7] = test system: SW626 (Colorectal Carcinoma); experiment: as above
Summary of the method: as §1

[8] = test system: SW1116 (Colorectal Carcinoma); experiment: as above
Summary of the method: as §1

[9] = test system: SIMA (Neuroblastoma); experiment: as above
Summary of the method: as §1

[10] = test system: SIMA (Neuroblastoma); experiment: combination Emax (second highest fraction inhibited in the dose matrix, 72 h); higher = more inhibition; extreme values may be limits of the assay
Summary of the method: as §1

[11] = test system: RH-18 (Rhabdomyosarcoma); experiment: Bliss excess, mean over the matrix (fraction); higher = more synergy
Summary of the method: as §1

[12] = test system: RH-18 (Rhabdomyosarcoma); experiment: combination Emax (second highest fraction inhibited in the dose matrix, 72 h); higher = more inhibition; extreme values may be limits of the assay
Summary of the method: as §1
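For Bliss excess, mean over the matrix in this document: after 72 h of two-drug dosing.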

Row | Structure (SMILES) | Bliss excess [1] | Bliss excess [2] | Bliss excess [3] | Bliss excess [4] | Bliss excess [5] | Bliss excess [6] | Bliss excess [7] | Bliss excess [8] | Bliss excess [9] | combination Emax [10] | Bliss excess [11] | combination Emax [12]
1 | Cc1c2c(nn1C)CSCc1cc(n(C)n1)CSc1cc(c3ccccc3c1)OCCCc1c(C(=O)O)n(C)c3c-2c(Cl)ccc13 [AZD5991] + C=CCn1c(=O)c2cnc(Nc3ccc(N4CCN(C)CC4)cc3)nc2n1-c1cccc(C(C)(C)O)n1 [AZD1775] (first compound max 1 µM, partner max 1 µM) | -0.0152 | 0.0023 | -0.0103 | 0.0115 | 0.0319 | 0.001 | 0.0446 | 0.005 | -0.0713 | 0.973 | – | –
2 | CN(CCO)CC[C@H](CSc1ccccc1)Nc1ccc(S(=O)(=O)NC(=O)c2ccc(N3CCC([C@@H](O)c4ccccc4-c4ccc(Cl)cc4)CC3)cc2)cc1S(=O)(=O)C(F)(F)F [AZD4320] + C[C@@H]1COCCN1C2=NC(=NC(=C2)C3(CC3)[S@](=N)(=O)C)C4=C5C=CNC5=NC=C4 [AZD6738] (first compound max 1 µM, 7x7, partner max 10 µM) | -0.0311 | -0.039 | -0.0649 | 0.028 | -0.0066 | -0.0124 | -0.0606 | -0.0406 | 0.0068 | 1 | – | –
3 | CN(CCO)CC[C@H](CSc1ccccc1)Nc1ccc(S(=O)(=O)NC(=O)c2ccc(N3CCC([C@@H](O)c4ccccc4-c4ccc(Cl)cc4)CC3)cc2)cc1S(=O)(=O)C(F)(F)F [AZD4320] + C1CN(CCC1(C(=O)N[C@@H](CCO)C2=CC=C(C=C2)Cl)N)C3=NC=NC4=C3C=CN4 [Capivasertib] (first compound max 1 µM, 7x7, partner max 3 µM) | 0.0292 | -0.029 | -0.0682 | -0.0317 | -0.0007 | -0.0082 | -0.0682 | -0.0612 | -0.0435 | 0.814 | – | –
4 | COc1cccc(OCCCN)c1-c1cc(Nc2cnc(C#N)cn2)n[nH]1 [Prexasertib] + CCc1c2c(nc3ccc(O)cc13)-c1cc3c(c(=O)n1C2)COC(=O)[C@]3(O)CC [SN-38] (first compound max 1 µM, 7x7, partner max 0.3 µM) | 0.157 | 0.0153 | 0.0283 | 0.107 | 0.0061 | 0.0659 | -0.0156 | 0.076 | – | – | -0.0464 | 0.689
5 | Cc1c2c(nn1C)CSCc1cc(n(C)n1)CSc1cc(c3ccccc3c1)OCCCc1c(C(=O)O)n(C)c3c-2c(Cl)ccc13 [AZD5991] + CN(C)CCCOc1ccc(-c2ccc3ncc4c(c3c2)n(C2CCOCC2)c(=O)n4C)cn1 [AZD0156] (first compound max 1 µM, 7x7, partner max 1 µM) | -0.0154 | 0.0081 | -0.0289 | 0.0186 | 0.0093 | 0.0213 | 0.0094 | -0.0032 | 0.0197 | 0.398 | – | –
6 | CN(CCO)CC[C@H](CSc1ccccc1)Nc1ccc(S(=O)(=O)NC(=O)c2ccc(N3CCC([C@@H](O)c4ccccc4-c4ccc(Cl)cc4)CC3)cc2)cc1S(=O)(=O)C(F)(F)F [AZD4320] + Cc1cc2ncnn2cc1Nc1ncc2c(n1)n(C1CCOCC1)c(=O)n2C [AZD7648] (first compound max 1 µM, 7x7, partner max 10 µM) | -0.0099 | -0.0041 | -0.0192 | -0.0202 | -0.0394 | -0.0214 | -0.0526 | -0.0359 | 0.0256 | 0.862 | – | –
7 | Cc1c2c(nn1C)CSCc1cc(n(C)n1)CSc1cc(c3ccccc3c1)OCCCc1c(C(=O)O)n(C)c3c-2c(Cl)ccc13 [AZD5991] + Cn1cnc2c(F)c(Nc3ccc(Br)cc3Cl)c(C(=O)NOCCO)cc21 [Selumetinib] (first compound max 1 µM, 7x7, partner max 3 µM) | 0.0071 | 0.0113 | 0.0032 | 0.0329 | -0.0313 | 0.0217 | 0.0233 | -0.032 | 0.0879 | 0.516 | – | –
8 | Cc1c2c(nn1C)CSCc1cc(n(C)n1)CSc1cc(c3ccccc3c1)OCCCc1c(C(=O)O)n(C)c3c-2c(Cl)ccc13 [AZD5991] + CC1(C)CCC(CN2CCN(c3ccc(C(=O)NS(=O)(=O)c4ccc(NCC5CCOCC5)c([N+](=O)[O-])c4)c(Oc4cnc5[nH]ccc5c4)c3)CC2)=C(c2ccc(Cl)cc2)C1 [Venetoclax] (first compound max 1 µM, 7x7, partner max 1 µM) | 0.0744 | -0.0301 | -0.0438 | 0.0017 | -0.0045 | -0.0271 | -0.0064 | -0.0215 | 0.107 | 0.46 | – | –
9 | CN(CCO)CC[C@H](CSc1ccccc1)Nc1ccc(S(=O)(=O)NC(=O)c2ccc(N3CCC([C@@H](O)c4ccccc4-c4ccc(Cl)cc4)CC3)cc2)cc1S(=O)(=O)C(F)(F)F [AZD4320] + CCN(CCO)CCCOc1ccc2c(Nc3cc(CC(=O)Nc4cccc(F)c4)[nH]n3)ncnc2c1 [AZD2811] (first compound max 1 µM, 7x7, partner max 1 µM) | 0.0635 | 0.0034 | -0.0558 | -0.0186 | 0.156 | -0.0091 | 0.0278 | -0.0299 | 0.0814 | 0.971 | – | –
10 | Cc1c2c(nn1C)CSCc1cc(n(C)n1)CSc1cc(c3ccccc3c1)OCCCc1c(C(=O)O)n(C)c3c-2c(Cl)ccc13 [AZD5991] + C[C@@H]1COCCN1C2=NC(=NC(=C2)C3(CC3)[S@](=N)(=O)C)C4=C5C=CNC5=NC=C4 [AZD6738] (first compound max 1 µM, 7x7, partner max 10 µM) | -0.0137 | -0.0095 | -0.018 | 0.0683 | 0.0197 | 0.0549 | 0.0268 | 0.0515 | 0.024 | 0.98 | – | –
